Assays:
Format in all cases: cell-based
mouse sperm = assay: Mouse sperm motility by CASA analysis (VCL) after 12 h capacitation; details: 0.2 μM clofilium, 12 h capacitation in M16-BSA medium at 37° C., vs control
Experimental: 3. The viability of mouse sperm was determined by the measurement of the sperm motility. The motility analysis was performed using Computer Assisted Semen Analysis (CASA analysis). The CASA analysis was always performed in the examples using a CEROS™, Hamilton Thorne Bioscience, USA. VCL was thus measured. As known to the skilled person, VCL (for Curvilinear Velocity) is the average velocity of the sperm head through its real path. For this analysis, samples were diluted at 0.1 10^6/mL. The diluted sample was incubated for 12 hours at 37° C. in a capacitation medium of M16-BSA medium, with or without 0.2 μM clofilium. For the CASA measurement, 10 μL of the sample were placed on a 2X-CEL Slides, […], Leja Products B.V.,Netherlands, placed on the heating stage (37° C.) of the CEROS ™. A total of 10 automatically selected fields were analyzed.

bovine sperm [1] = assay: CASA motility of bovine sperm subpopulation with VCL >150 μm/s, sperm frozen with clofilium; details: bovine sperm frozen with 0.2 μM clofilium, 24 h in capacitation medium with 0.2 μM clofilium, vs control
Experimental: However, only sperm presenting a sufficient velocity are able to cross the protective layers surrounding the egg and thus are competent for fertilizing eggs. To take this into account, sperm presenting a VCL >150 μm/s were selected and their velocity measured at different time (0 h and 24 h) in control condition or in the presence of clofilium. Sperm were frozen without clofilium (control) and with clofilium prior to test their motility. In the second case, clofilium was present during the sperm incubation period and during the capacitation period. Bovine ejaculate was split into two fractions, and diluted 1:1 in either Optixcell (Fraction 1) or Optixcell containing clofilium 0.2 μM (Fraction 2). After 10 minutes of 34° C. incubation, semen was then diluted to a final concentration of 57 million of spermatozoa/ml in Optixcell (Fraction 1) or Optixcell containing clofilium 0.2 μM (Fraction 2). Diluted semen was frozen as described above and stored in liquid nitrogen until in vitro fertilization. Thus, two types of straws were used: control straws and straws containing clofilium (0.2 μM ). Straws were thawed in a water-bath at 37° C. for 45 s. Each straw was wiped with 70° ethanol before opening. […] Spermatozoa presenting a VCL >150 μm/s were selected and their motility was measured using CASA, performed as above in control condition or in the presence of clofilium. […]

bovine sperm [2] = assay: In vitro fertilization with bovine sperm frozen with clofilium, washed or not washed after thawing; details: bovine sperm frozen with 0.2 μM clofilium, vs control
Experimental: In order to be as close as possible of the possible field usage, sperm were frozen with clofilium prior to test their ability to improve fertilization. Two conditions were tested: in the first one, clofilium was present during the sperm incubation period, and in the second one, sperm was washed to remove clofilium in order to mimic the condition that may occur in the female reproductive tract. Straws containing clofilium were obtained as described below. Bovine ejaculate was split into two fractions, and diluted 1:1 in either Optixcell (Fraction 1) or Optixcell containing clofilium 0.2 μM (Fraction 2). After 10 minutes of 34° C. incubation, semen was then diluted to a final concentration of 57 million of spermatozoa/ml in Optixcell (Fraction 1) or Optixcell containing clofilium 0.2 μM (Fraction 2). Diluted semen was frozen as described above and stored in liquid nitrogen until in vitro fertilization. Two types of straws were used: control straws and straws containing clofilium. For straws containing clofilium, two conditions were tested: washed and not washed. The wash medium is a commonly used medium, sp-TALP, for bovine sperm handling and which composition is described above. For “not washed” conditions, sperm were incubated with sp-TALP containing 0.2 μM clofilium. […]

## CCCCCCC[N+](CC)(CC)CCCCc1ccc(Cl)cc1 [clofilium]
Mouse sperm
  motility of sperm (in terms of VCL): higher velocity than the “control”
Bovine sperm [1]
  motility (in terms of VCL) of sperm subpopulation with VCL >150 μm/s: higher mean velocity
Bovine sperm [2]; not washed (clofilium present in sp-TALP), up to 48 h incubation
  percentage of 2-cell embryos vs matured oocytes at 24 h post fertilization: positive effect on embryo outcome lasted 48 hours
Bovine sperm [2]; washed clofilium, 24 h incubation in sp-TALP
  percentage of 2-cell embryos vs matured oocytes at 24 h post fertilization: positive effect at 24 hours is still present, although lower
Bovine sperm [2]; washed clofilium, 48 h incubation in sp-TALP
  percentage of 2-cell embryos vs matured oocytes at 24 h post fertilization: the effect is no longer present

Reference: patent US20230292743A1, “Method for increasing the lifespan and motility of animal sperm using an inhibitor of Slo3 potassium channel” (IMV TECHNOLOGIES, priority 2017, published 2023)
